This test deals with ASPS-1 complex tumor spheroids, viability. Kind of test: Anticancer human tumor ASPS-1 cell line growth inhibition.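 On all read-outs here: spheroids exposed to agents for 7 days after 3 days of growth.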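 On viability, T/C: 100% = DMSO vehicle treated spheroids.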 The settings on record: for viability, T/C: stronger effect = lower value. The source says: Multicellular complex tumor spheroid response to DNA repair inhibitors in combination with DNA-damaging drugs
This study explores the anticancer activities of DNA-damaging drugs and inhibitors of DNA damage repair, both as single agents and in combinations. Complex tumor spheroids comprised of malignant cells, endothelial cells and mesenchymal stem cells served as an in vitro model for human solid tumors. This model system incorporates physiologically relevant features and patient-derived or established malignant cell lines with clinically relevant genetic alterations from many tumor types. Twenty-six patient-derived or established malignant cell lines were evaluated representing sarcoma, melanoma, small cell lung cancer (SCLC), non-small cell lung cancer (NSCLC), as well as bladder, ovarian and pancreatic cancers. The concentration ranges selected for each drug and investigational agent were based upon clinically achievable concentrations if the clinical Cmax of the agent was known.
Compounds. The drugs and compounds olaparib (NSC753686), talazoparib (NSC767125), berzosertib (NSC777718), elimusertib (NSC800525), nedisertib (NSC802822), VX-984 (NSC792969), AZD-1390 (NSC803789), temozolomide (NSC362856), topotecan (NSC609699), trabectedin (NSC813783), staurosporine (NSC755774), and gemcitabine (NSC613327) were obtained from the National Cancer Institute (NCI) Developmental Therapeutics Program Chemical Repository. The FDA-approved anticancer drug set is available from the Developmental Therapeutics Program at https://dtp.cancer.gov/organization/dscb/obtaining/available_plates.htm. […] The stock solutions were prepared in dimethyl sulfoxide (DMSO, Sigma-Aldrich, St. Louis, MO, cat. D2650) at 400-fold the tested concentration and stored at -70 degrees C. Prior to their use, the stock solutions were diluted in fresh medium and the final DMSO concentration in the assay was 0.25% (v/v). All drugs and investigational agents were tested over a range starting from a high concentration at or near the clinical Cmax and decreasing in half-log increments. If the clinical Cmax for an agent had not been determined, the highest concentration tested was 10 microM.
Cell Lines. The patient-derived cancer cell (PDC) lines: 156681-154-R-J1-PDC, 283228-195-R-J1-PDC, 287954-098-R-J1-PDC, 292921-168-R-J2-PDC, 349418-098-R-PDC, 425362-245-T-J1-PDC, 556581-035-R-J1-PDC, and BL0293-F563-PDC were received from the NCI Patient-Derived Models Repository (PDMR, https://pdmr.cancer.gov). The established cell lines HS-SY-2 (RRID:CVCL_8719), MPNST, and SYO-1 (RRID:CVCL_7146) were obtained from the Sloan Kettering Institute. The alveolar soft parts sarcoma cell line ASPS-1 (RRID:CVCL_S738) was established at the NCI and grown from internal seed stocks. The following established cell lines were purchased from the American Type Culture Collection (ATCC, Manassas, VA): G-401 (ATCC, cat. CRL-1441, RRID:CVCL_0270), SW982 (ATCC, cat. HTB-93, RRID:CVCL_1734), VA-ES-BJ (ATCC, cat. CRL-2138, RRID:CVCL_1785), NCI-H719 (ATCC, cat. CRL-5837, RRID:CVCL_1582), NCI-H196 (ATCC, cat. CRL-5823, RRID:CVCL_1509), NCI-H841 (ATCC, cat. CRL-5845, RRID:CVCL_1595), NCI-H1618 (ATCC, cat. CRL-5879, RRID:CVCL_1480), NCI-H1876 (ATCC, cat. CRL-5902, RRID:CVCL_1503), DMS 114 (ATCC, cat. CRL-2066; RRID:CVCL_1174), NCI-H211 (ATCC, cat. CRL-5824; RRID:CVCL_1529), and SW 1271 (ATCC, cat. CRL-2177, RRID:CVCL_1716). The small cell lung cancer cell line COR-L88 was purchased from Sigma-Aldrich (cat. 92031917-1VL, RRID:CVCL_1141). The non-small cell lung cancer cell lines NCI-H226 (RRID:CVCL_1544) and NCI-H322M (RRID:CVCL_1557) were established at the NCI and grown from internal seed stocks. Pooled donor human umbilical vein endothelial cells (HUVEC, Lonza, cat. CC-2519) and human mesenchymal stem cells (hMSC, Lonza, cat. PT-2501) were purchased from Lonza (Walkersville, MD).
Cell Culture. All cells were maintained in an incubator at 37 degrees C and 5% CO2 with 95% humidity. […]

Setting [1] is: compound alone, run of 11/07/2019.

The structures appear in SMILES notation. “And” between values parts separate entries of the source, which are not always exact repeats. Identical values can stand only once.

One may read the viability, T/C as the result in the treated group divided by that in the control group, in per cent. Broadly, the IC50 is the concentration needed to halve the response being measured.

With `CC1COCCN1c1cc(-c2ccnn2C)c2ccnc(-c3ccn[nH]3)c2n1` (centres undefined), the viability, T/C (compound 0.0316 µM) was 85.3% and 92.7% and 83.6%; the viability, T/C (compound 0.1 µM) is 60.3% and 70.7% and 69.8%; the viability, T/C (compound 0.316 µM) was 43.5% and 50.8% and 46.5%; the viability, T/C (compound 1 µM) was 37.7% and 46% and 48.2%; the viability, T/C (compound 3.16 µM) is 42.6% and 45.1% and 48%; the viability, T/C (compound 10 µM) was 39.6% and 46.7% and 44.7%. In addition, the IC50 (curve of compound) was 198 nM and 376 nM and 270 nM.
Turning to `Cn1nnc2c(C(N)=O)ncn2c1=O`, the viability, T/C by setting is: (compound 1 µM) 98.1% [middle of 10 runs]; (compound 3.16 µM) 103% [middle of 10 runs]; (compound 10 µM) 92% [middle of 10 runs]; (compound 31.6 µM) 81% [middle of 10 runs]; (compound 100 µM) 70.1% [middle of 10 runs]. Also, the IC50 under setting [1] was more than 100000 nM.
`Cn1ncnc1[C@H]1c2n[nH]c(=O)c3cc(F)cc(c23)N[C@@H]1c1ccc(F)cc1` + COc1cc2c(cc1O)CCNC21CSC2c3c(OC(C)=O)c(C)c4c(c3C(COC1=O)N1C(O)C3Cc5cc(C)c(OC)c(O)c5C(C21)N3C)OCO4: the IC50 runs as follows: (curve of first compound, second compound 30 pM) more than 3000 nM; (curve of first compound, second compound 94.9 pM) more than 3000 nM; (curve of first compound, second compound 0.0003 µM) 2230 nM; (curve of first compound, second compound 0.000949 µM) 562 nM; (curve of first compound, second compound 0.003 µM) less than 9.49 nM. Further, the viability, T/C runs as follows: (second compound 30 pM, first compound 0.00949 µM) 102%; (second compound 30 pM, first compound 0.03 µM) 93.8%; (second compound 30 pM, first compound 0.0949 µM) 101%; (second compound 30 pM, first compound 0.3 µM) 101%; (second compound 30 pM, first compound 0.949 µM) 89.3%; (second compound 30 pM, first compound 3 µM) 62.8%. Moreover, the viability, T/C is, setting by setting: (second compound 94.9 pM, first compound 0.00949 µM) 97.3%; (second compound 94.9 pM, first compound 0.03 µM) 97.2%; (second compound 94.9 pM, first compound 0.0949 µM) 98%; (second compound 94.9 pM, first compound 0.3 µM) 94%; (second compound 94.9 pM, first compound 0.949 µM) 88.8%; (second compound 94.9 pM, first compound 3 µM) 57.5%. The viability, T/C is, setting by setting: (second compound 0.0003 µM, first compound 0.00949 µM) 86%; (second compound 0.0003 µM, first compound 0.03 µM) 89.8%; (second compound 0.0003 µM, first compound 0.0949 µM) 85.2%; (second compound 0.0003 µM, first compound 0.3 µM) 83.3%; (second compound 0.0003 µM, first compound 0.949 µM) 75.4%; (second compound 0.0003 µM, first compound 3 µM) 40.9%. Also, the viability, T/C reads like this: (second compound 0.000949 µM, first compound 0.00949 µM) 70.3%; (second compound 0.000949 µM, first compound 0.03 µM) 63.5%; (second compound 0.000949 µM, first compound 0.0949 µM) 56.7%; (second compound 0.000949 µM, first compound 0.3 µM) 59.7%; (second compound 0.000949 µM, first compound 0.949 µM) 45.1%; (second compound 0.000949 µM, first compound 3 µM) 28.4%. Also, the viability, T/C (second compound 0.003 µM, first compound 0.00949 µM) is 21.5%; the viability, T/C (second compound 0.003 µM, first compound 0.03 µM) is 21.8%; the viability, T/C (second compound 0.003 µM, first compound 0.0949 µM) was 19.4%; the viability, T/C (second compound 0.003 µM, first compound 0.3 µM) was 16.6%; the viability, T/C (second compound 0.003 µM, first compound 0.949 µM) was 13.3%; the viability, T/C (second compound 0.003 µM, first compound 3 µM) is 4.87%.
With `CC[C@@]1(O)C(=O)OCc2c1cc1n(c2=O)Cc2cc3c(CN(C)C)c(O)ccc3nc2-1`, the viability, T/C (compound 0.003 µM) was 101% [middle of 10 runs]; the viability, T/C (compound 0.00949 µM) was 103% [middle of 10 runs]; the viability, T/C (compound 0.03 µM) was 96.3% [middle of 10 runs]; the viability, T/C (compound 0.0949 µM) is 56.3% [middle of 10 runs]. Further, the IC50 under setting [1] was 222 nM and 160 nM and > 300 nM; the IC50 (compound alone, run of 12/16/2019) was more than 300 nM.

The record behind these values is PubChem BioAssay AID1845200 (Molecular Pharmacology Branch, DTP, NCI, 2023).
